Read-outs that look alike come from different tables or passages of the source.
Experiments:
Raji cells [1] = assay: Number of dead cells by propidium iodide staining, flow cytometry; assay type: cell-based, human; details: 48 hours, Fig. 2; for propidium iodide-positive cells (dead cells): compound alone (L-ASC 100 µM)
Description: Raji cells were grown in RPMI medium supplemented with 10% fetal bovine serum and antibiotic/antimycotic solution. […] Cytostatic/cytotoxic effects of treatment were assessed by:
(b) Quantitation of the number of dead cells with propidium iodide staining using flow cytometry
100 µl of cells were mixed with 100 µl of propidium iodide solution (4 µg/ml in PBS) and the number of propidium iodide-positive cells (dead cells) was assessed using flow cytometer Accuri C6.

[2] = test system: normal B cells isolated from human tonsils; assay: Non-viable cells by propidium iodide staining in normal B cells; assay type: cell-based; details: TXNR inhibitor in combination with L-ASC, 48 hours, three healthy donors, Fig. 5
Description: Human tonsils were derived from subjects undergoing tonsillectomy. After resection, tonsils were cut into small pieces and incubated in the RPMI medium supplemented with collagenase and DNase for 30 min at 37 °C with gentle shaking and filtered through 70 µm cell strainer. After washing in PBS, mononuclear cells were isolated with Histopaque 1077 density gradient and subjected to CD19 negative selection using EasySep™ Human B Cell Enrichment Kit ([…] Technologies). The purity of isolated B cells exceeded 95%. Subsequently, B cells were suspended in RPMI medium supplemented with 10% fetal bovine serum and antibiotic/antimycotic solution, and incubated with L-ASC, SK053, AUR, exactly as Raji cells (described in Example 1). After 48 hours of incubation, the number of non-viable cells was determined by flow cytometry, as the fraction of propidium iodide positive cells. […] This experiment was repeated in three different healthy donors.

adult rats = details: cited from earlier work
Raji cells [3] = assay: MTT assay, cytostatic/cytotoxic effects; assay type: cell-based, human; details: 48 hours, Fig. 1
Description: Raji cells were grown in RPMI medium supplemented with 10% fetal bovine serum and antibiotic/antimycotic solution. Raji cells were incubated for 15 min at 37 °C with 100 µM or 200 µM L-ASC and then TXNR inhibitors, SK053 or AUR, were added and the cells were cultured for additional 48 hours. Cytostatic/cytotoxic effects of treatment were assessed by:
(a) MTT (3-[4,5-dimethylthiazol-2-yl]-2,5-diphenyltetrazolium bromide) assay
20 µl of MTT (5mg/ml in PBS) was added to 100 µl of cells and maintained in cell culture conditions. After 2 hours, 100 µl of solubilization buffer (10% SDS, 0,01N HCl) was added to each well and plates were maintained in a cell culture incubator overnight. The absorbance was measured at 560 nm using a microplate reader (ASYS UVM 340, Biochrom). The relative viability was calculated according to the following formula: % viability = [(Am - Ab)/(Ac - Ab)] × 100%, where Am is the measured absorbance, Ab is the background absorbance, and Ac is the absorbance of vehiculum-treated controls (DMSO).

[4] = cited from earlier work
adult mice = details: cited from earlier work
[5] = cited from earlier work; remark: listed apart in the source
advanced cancers = details: patients with advanced cancers, L-ASC-treated subjects; cited from earlier work
Raji cells [6] = assay: Intracellular ROS level, CM-H2-DCFDA fluorescent probe, flow cytometry; assay type: cell-based, human
Description: The level of intracellular ROS in Raji cells treated with L-ASC and SK053 alone or in combination was evaluated. Raji cells were loaded with CM-H2-DCFDA fluorescent probe (Molecular Probes) according to the manufacturer's protocol, using 1 µM dye concentration for 30 min. at 37 °C. […] After 8 hours cells were harvested in PBS and the intensity of green fluorescence was analyzed by flow cytometry (Accuri C6).

lymphoma cells = lymphoma cells in vitro; cited from earlier work
Raji cells [7] = assay: Comparison of ascorbate stereoisomers and oxidized form combined with TXNR inhibitors (Fig. 3); assay type: cell-based, human; details: ascorbate form combined with SK053 or AUR

CC(=O)OC[C@H]1O[C@@H]([S-])[C@H](OC(C)=O)[C@@H](OC(C)=O)[C@@H]1OC(C)=O.CCP(CC)CC.[Au+] [AUR, (2,3,4,6-tetra-O-acetyl-1-thio-β-D-glucopyranosato-S-) (triethyl-phosphine) gold complex]
dead cells (Raji cells [1]; TXNR inhibitor in combination with 100 µM L-ASC): ~100%
propidium iodide-positive cells (dead cells) (Raji cells [1]): < 10%
synergistic cytotoxic effect with L-ASC, fraction of propidium iodide positive cells [2]: synergistic cytotoxic effect between none of the TXNR inhibitors and L-ASC was observed
acute oral LD50 (adult rats; adult rats, oral): 265 mg/kg
minimum lethal dose (adult rats; rats): 30 mg/kg
cytostatic/cytotoxic effects of TXNR inhibitor in combination with L-ASC (Raji cells [3]; in combination with 100 µM or 200 µM L-ASC): remarkably increased the cytostatic/cytotoxic effects
labelled gold excreted ([4]; by day 10, total): 77%
labelled gold excreted with feces ([4]; by day 10): 73%
labelled gold excreted with urine ([4]; by day 10): 4%
AUR gold bound to red blood cells ([4]; in blood): approximately 40%
AUR gold bound to serum proteins ([4]; in blood): 60%
oral dose absorbed ([4]; oral, radiolabelled AUR): approximately 25%
peak plasma concentrations ([4]; oral, radiolabelled AUR): 0.3 to 0.4 µM
time to reach peak plasma concentrations ([4]; oral, radiolabelled AUR): 1 to 2 h
mean plasma half-life ([4]; radiolabelled AUR): 17 days
labelled gold retained in the body ([4]; six months after a single dose): 0,4%
acute oral LD50 (adult mice): 310 mg/kg

O=C1O[C@H]([C@@H](O)CO)C(O)=C1O [L-ASC, L-ascorbate]
propidium iodide-positive cells (dead cells) (Raji cells [1]): < 10%
plasma concentration ([5]; high oral doses): approximately 220 µM
L-ASC plasma concentrations ([5]; intravenous (i.v.) delivery): up to 20 mM
L-ASC plasma concentrations ([5]; oral administration, maximal): ≤ 300 µM
peak plasma concentrations ([5]; slow i.v. infusion of high doses): over 10 mM
increased mean survival time (MST) (advanced cancers): over 4 fold
viability of Raji cells (Raji cells [3]; L-ASC alone at 100 µM and 200 µM): did not affect the viability
ROS levels in the presence of catalase (Raji cells [6]; compound alone, with 100 µg/ml catalase, Fig. 4B): at the control levels
ROS levels (Raji cells [6]; compound alone: 100 µM ASC or 20 µM SK053, 8 hours, Fig. 4A): only slightly increased ROS levels
LD50 (lymphoma cells): ~0,5 mM

O=C1O[C@H]([C@@H](O)CO)C(=O)C1=O [L-DHA, dehydroascorbic acid]
interaction with TXNR inhibitors (SK053, AUR), cytotoxicity to Raji cells (Raji cells [7]): had no impact on cytotoxicity

From patent EP3181118B1, “SYNERGISTIC COMBINATION OF TXNR INHIBITORS AND ASCORBATE FOR TREATMENT OF B CELL MALIGNANCIES” (Warszawski Uniwersytet Medyczny, priority 2015, dated 2017)
